According to patent publication US11286228B2, “Stilbene derivative and method for preparing same” (Ozchela Inc., priority 2016, dated 2022):
Where two headings read alike, the source gives them in different places.

Legend:
cyclophilin = assay: Cis-trans isomerase inhibitory activity (chymotrypsin-coupled Suc-AAPF-pNA cleavage, absorbance 390 nm); assay type: biochemical; details: cyclophilin, chymotrypsin, Suc-AAPF-pNA; read-out: Test Example 1: cis-trans isomerase inhibitory activity (IC50)
Text: Chymotrypsin cleaves a trans-type alanine-proline peptide bond. When Suc-AAPF-pNA (a peptide substrate) and chymotrypsin are mixed, the trans-type peptide substrate is cleaved and the cis-type peptide substrate remains. The remaining cis-type peptide substrate is converted into a trans form by a cis-trans isomerase and is then cleaved again by chymotrypsin. When the cis-trans isomerase is present, chymotrypsin is able to cleave a larger amount of trans-type peptide substrate within a predetermined period of time, from which the activity of the cis-trans isomerase may be determined. The amount of the cleaved trans-type peptide substrate is measured using absorbance at 390 nm. Cyclophilin has cis-trans isomerase activity, and accelerates the cleavage of trans-type peptide substrate by chymotrypsin. When the stilbene derivatives of the present invention were treated together with cyclophilin, the cleavage of the peptide substrate by chymotrypsin was not observed to accelerate. Thereby, the stilbene derivatives of the invention can be concluded to inhibit the activity of cyclophilin.

[1] = tested on: mitochondria obtained from hepatocytes; assay: Inhibitory activity on calcium-induced mitochondrial swelling (absorbance 520 nm); details: calcium-induced swelling of extracted mitochondria, read-out: Test Example 4: inhibiting mitochondrial swelling (IC50)
Text: Cyclophilin is a key protein for forming permeability transition pores (PTP) in mitochondria. When permeability transition pores are formed, mitochondria swell, whereby the outer membrane thereof ruptures and thus cell death progresses. Such mitochondrial dysfunction causes many diseases including neurodegenerative diseases, cancer, and the like. Cyclosporine, a known cyclophilin inhibitor, is capable of preventing the formation of permeability transition pores to thus suppress mitochondrial swelling.
The mitochondrial swelling test was performed as follows. Specifically, the hepatocytes were disrupted using a Dounce tissue grinder. The disrupted cells were centrifuged at 700×g for 10 min and the supernatant was transferred into a new tube. The supernatant was centrifuged at 12,000×g for 15 min, thereby obtaining mitochondria.
When the extracted mitochondria were added with calcium, they swelled, which may be observed by measuring the absorbance at 520 nm. The stilbene derivatives are effective at inhibiting mitochondrial swelling due to calcium.
The activity of Compounds 1 to 155 of Tables 1 to 10 on inhibiting mitochondrial swelling may be determined based on IC50 values, and may be grouped as follows: […]

hepatitis C virus = assay: Antiviral activity in HCV replicon cells (Renilla luciferase); assay type: cell-based; details: read-out: Test Example 3: antiviral activity (EC50)
Description: The antiviral activity of the stilbene derivatives on hepatitis C virus was measured. The replicon cells that stably replicate the hepatitis C virus genome were attached to a culture plate and cultured in a CO2 incubator at 37° C. for 24 hr. The replicon cells cultured for one day were washed with a PBS solution, treated with the compounds of the present invention, and then cultured for 72 hr. The stilbene derivative-treated replicon cells were washed with a cold PBS solution and added with 20 μL of a cell lysis solution so that the cells were lysed in ice for 20 min. 100 μL of a Renilla luciferase substrate was added thereto, after which the luminescence thereof was measured and thus the amount of the hepatitis C virus genome was estimated. The amount of the hepatitis C virus genome in the stilbene derivative-treated replicon cells according to the present invention relative to the amount of the hepatitis C virus genome in dimethylsulfoxide (DMSO)-treated replicon cells is shown.
Compounds 1 to 155 of Tables 1 to 10 may be grouped as follows based on the antiviral activity (EC50) values: […]

[2] = Hepatitis C virus, HCV replicon cells, 72 hr, Renilla luciferase, relative to DMSO

SMILES	IC50 (cyclophilin) [nM]	IC50 ([1]; Hepatocyte) [nM]	EC50 (hepatitis C virus; [2]) [nM]	EC50 (hepatitis C virus; Hepatitis C virus, 72 h) [nM]	IC50 [1] [nM]	EC50 (hepatitis C virus; HCV replicon cells, 72 hr, Renilla luciferase, relative to DMSO) [nM]
N#CC(=Cc1ccccc1CCc1ccc(N)cc1)c1ccc([N+](=O)[O-])cc1 [Compound 53]	20 to 200	5000 to 50000	500 to 5000			
CC(C)(C)Cc1ccc(C(C#N)=Cc2ccccc2C(=O)O)cc1 [Compound 54]	≤ 20	< 5000	< 500			
CC(C)C(C)c1ccc(C(C#N)=Cc2ccccc2C(=O)O)cc1 (stereo not drawn) [Compound 55]	20 to 200	5000 to 50000	500 to 5000			
CC(c1ccc(C(C#N)=Cc2ccccc2C(=O)O)cc1)C(C)(C)C (stereo not drawn) [Compound 56]	20 to 200	5000 to 50000	500 to 5000			
CC(C)(C)CCc1ccc(C(C#N)=Cc2ccccc2C(=O)O)cc1 [Compound 57]	≤ 20	< 5000	< 500			
CC(C)C(C)Cc1ccc(C(C#N)=Cc2ccccc2C(=O)O)cc1 (stereo not drawn) [Compound 58]	20 to 200	5000 to 50000		500 to 5000		
N#CC(=Cc1ccccc1C(=O)O)c1ccc(CC2CCCCC2)cc1 [Compound 59]	≤ 20	< 5000	< 500			
N#CC(=Cc1ccccc1C(=O)O)c1ccc(CCC2CCCCC2)cc1 [Compound 60]	≤ 20	< 5000	< 500			
N#CC(=Cc1ccccc1C(=O)O)c1ccc(CC2CC2)cc1 [Compound 61]	≤ 20	< 5000	< 500			
N#CC(=Cc1ccccc1C(=O)O)c1ccc(CCC2CC2)cc1 [Compound 62]	≤ 20	< 5000	< 500			
CC(C)(Cc1ccc(C(C#N)=Cc2ccccc2C(=O)O)cc1)CC1CC1 [Compound 63]	20 to 200	5000 to 50000	500 to 5000			
CCCCOC(=O)c1ccccc1C=Cc1ccc(CC(C)(C)C)cc1C [Compound 67]	20 to 200	5000 to 50000	500 to 5000			
CCCCOC(=O)c1ccccc1C=Cc1ccc(CC(C)(C)C)cc1CC [Compound 68]	20 to 200	5000 to 50000	500 to 5000			
CCCCOC(=O)c1cc(C)ccc1C=Cc1ccc(CC(C)(C)C)cc1 [Compound 69]	20 to 200	5000 to 50000	500 to 5000			
CCCCOC(=O)c1c(C=Cc2ccc(CC(C)(C)C)cc2)ccc(C)c1C [Compound 70]	20 to 200	5000 to 50000	500 to 5000			
CCCOC(=O)c1ccccc1C=Cc1ccc(CC(C)(C)C)cc1 [Compound 71]	≤ 20	< 5000	< 500			
CCCCCOC(=O)c1ccccc1C=Cc1ccc(CC(C)(C)C)cc1 [Compound 72]	≤ 20				< 5000	< 500
CC(C)OC(=O)c1ccccc1C=Cc1ccc(CC(C)(C)C)cc1 [Compound 73]	≤ 20	< 5000	< 500			
CC(C)(C)Cc1ccc(C=Cc2ccccc2C(=O)OCC2CCCCC2)cc1 [Compound 74]	≤ 20	< 5000	< 500			
CC(C)(C)Cc1ccc(C=Cc2ccccc2C(=O)OCC2CCCCN2)cc1 (stereo not drawn) [Compound 75]	20 to 200	5000 to 50000	500 to 5000			
CC(C)(C)Cc1ccc(C=Cc2ccccc2C(=O)OCc2ccccc2)cc1 [Compound 76]	≤ 20	< 5000	< 500			
CC(C)(C)Cc1ccc(C=Cc2ccccc2C(=O)OC2CCCCC2)cc1 [Compound 77]	20 to 200	5000 to 50000	500 to 5000			
CCCCOC(=O)c1ccccc1C=Cc1ccc(CC(C)CC)cc1 (stereo not drawn) [Compound 78]	20 to 200	5000 to 50000	500 to 5000			

SMILES	IC50 (cyclophilin) [nM]	IC50 ([1]; Hepatocyte) [nM]	EC50 (hepatitis C virus; [2]) [nM]	EC50 (hepatitis C virus; Hepatitis C virus, 72 h) [nM]	IC50 [1] [nM]	EC50 (hepatitis C virus; HCV replicon cells, 72 hr, Renilla luciferase, relative to DMSO) [nM]
CCCCOC(=O)c1ccccc1C=Cc1ccc(CC2CCCC2)cc1 [Compound 79]	20 to 200	5000 to 50000	500 to 5000			
CCCCOC(=O)c1ccccc1C=Cc1ccc(Cc2ccccc2)cc1 [Compound 81]	20 to 200	5000 to 50000		500 to 5000		
CCCCOC(=O)c1ccccc1C=C(C)c1ccc(CC(C)(C)C)cc1 [Compound 82]	20 to 200	5000 to 50000	500 to 5000			
CCCCOC(=O)c1c(C)cccc1C=C(C)c1ccc(CC(C)(C)C)cc1 [Compound 83]	20 to 200	5000 to 50000	500 to 5000			
CCCCOC(=O)c1ccccc1C=C(C)c1ccc(CC(C)(C)C)cc1C [Compound 84]	20 to 200	5000 to 50000	500 to 5000			
CCCCOC(=O)c1cc(C)ccc1C=C(C)c1ccc(CC(C)(C)C)cc1 [Compound 85]	20 to 200	5000 to 50000	500 to 5000			
CCCCOC(=O)c1c(C=C(C)c2ccc(CC(C)(C)C)cc2)ccc(C)c1C [Compound 86]	20 to 200	5000 to 50000	500 to 5000			
CCCOC(=O)c1ccccc1C=C(C)c1ccc(CC(C)(C)C)cc1 [Compound 87]	20 to 200	5000 to 50000	500 to 5000			
CCCCCOC(=O)c1ccccc1C=C(C)c1ccc(CC(C)(C)C)cc1 [Compound 88]	20 to 200	5000 to 50000	500 to 5000			
CC(=Cc1ccccc1C(=O)OC(C)C)c1ccc(CC(C)(C)C)cc1 [Compound 89]	20 to 200	5000 to 50000	500 to 5000			
CC(=Cc1ccccc1C(=O)OCC1CCCCC1)c1ccc(CC(C)(C)C)cc1 [Compound 90]	20 to 200	5000 to 50000	500 to 5000			
CC(=Cc1ccccc1C(=O)OCC1CCCCN1)c1ccc(CC(C)(C)C)cc1 (stereo not drawn) [Compound 91]	20 to 200	5000 to 50000	500 to 5000			
CC(=Cc1ccccc1C(=O)OCc1ccccc1)c1ccc(CC(C)(C)C)cc1 [Compound 92]	20 to 200	5000 to 50000	500 to 5000			
CC(=Cc1ccccc1C(=O)OC1CCCCC1)c1ccc(CC(C)(C)C)cc1 [Compound 93]	20 to 200	5000 to 50000	500 to 5000			
CCCCOC(=O)c1ccccc1C=C(C)c1ccc(CC(C)CC)cc1 (stereo not drawn) [Compound 94]	20 to 200	5000 to 50000	500 to 5000			
CCCCOC(=O)c1ccccc1C=C(C)c1ccc(CC2CCCC2)cc1 [Compound 95]	20 to 200	5000 to 50000	500 to 5000			
CCCCOC(=O)c1ccccc1C=C(C)c1ccc(CC2CCCCC2)cc1 [Compound 96]	20 to 200	5000 to 50000	500 to 5000			
CCCCOC(=O)c1ccccc1C=C(C)c1ccc(Cc2ccccc2)cc1 [Compound 97]	20 to 200	5000 to 50000		500 to 5000		
CCCCOC(=O)c1ccccc1C=C(N)c1ccc(CC(C)(C)C)cc1 [Compound 98]	20 to 200	5000 to 50000	500 to 5000			
CCCCOC(=O)c1c(C)cccc1C=C(N)c1ccc(CC(C)(C)C)cc1 [Compound 99]	20 to 200	5000 to 50000	500 to 5000			
CCCCOC(=O)c1ccccc1C=C(N)c1ccc(CC(C)(C)C)cc1C [Compound 100]	20 to 200	5000 to 50000	500 to 5000			
CCCCOC(=O)c1cc(C)ccc1C=C(N)c1ccc(CC(C)(C)C)cc1 [Compound 101]	20 to 200	5000 to 50000	500 to 5000			
CCCCOC(=O)c1c(C=C(N)c2ccc(CC(C)(C)C)cc2)ccc(C)c1C [Compound 102]	20 to 200	5000 to 50000	500 to 5000			
